Source: patent US6017520A, “Penetration enhancement of topically applied therapeutic formulations” (Block Drug Company, Inc., priority 1997, dated 2000)

Test: Penetration study, Bronaugh flow-through diffusion cell system (permeability coefficient Kp)
Conditions: 0.5 percent ketoprofen in the presence of vitamin E

For `CC(C(=O)O)c1cccc(C(=O)c2ccccc2)c1` (stereo not shown) [ketoprofen], the penetration rate was “greater than that of 1.0 percent ketoprofen without vitamin E”.
